A value given as a limit tells only on which side of the number the result lay.

human PDE4D3 (PDE4D), sequence (Q08499 other isoform, or with tags, fused parts or gaps): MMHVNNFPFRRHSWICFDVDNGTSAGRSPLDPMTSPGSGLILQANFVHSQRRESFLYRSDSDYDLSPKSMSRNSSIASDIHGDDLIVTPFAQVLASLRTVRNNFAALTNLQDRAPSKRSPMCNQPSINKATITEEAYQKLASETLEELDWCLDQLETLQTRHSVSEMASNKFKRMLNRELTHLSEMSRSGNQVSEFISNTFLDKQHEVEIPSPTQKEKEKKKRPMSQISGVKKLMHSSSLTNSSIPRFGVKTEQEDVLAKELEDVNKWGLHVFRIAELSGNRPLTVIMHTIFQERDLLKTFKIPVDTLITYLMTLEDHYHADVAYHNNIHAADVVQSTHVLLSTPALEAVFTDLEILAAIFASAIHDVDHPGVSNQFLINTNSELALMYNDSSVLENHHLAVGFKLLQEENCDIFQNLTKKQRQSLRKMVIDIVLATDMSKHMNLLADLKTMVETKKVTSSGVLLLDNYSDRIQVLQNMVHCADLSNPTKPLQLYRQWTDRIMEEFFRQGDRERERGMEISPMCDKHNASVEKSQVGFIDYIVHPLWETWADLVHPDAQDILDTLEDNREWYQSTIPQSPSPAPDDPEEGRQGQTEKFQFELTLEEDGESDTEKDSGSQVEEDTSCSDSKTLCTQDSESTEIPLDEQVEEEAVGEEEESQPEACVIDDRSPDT

This experiment addresses human PDE4D3 (PDE4D) (Homo sapiens (Human), UniProt Q08499). Kind of experiment: Phosphodiesterase (PDE)4 inhibitory activity evaluation test ([3H]cAMP hydrolysis by PDE4D enzyme solution). The format is biochemical. Particulars: recombinant human PDE4D3 expressed in COS-7 cells; [3H]cAMP substrate; 10 min at 30° C.; 2% DMSO. The source says:
Phosphodiesterase (PDE)4 Inhibitory Activity Evaluation Test
(1) Large Scale Plasmid Preparation
Plasmid containing genes (HPDE4D) coding for human PDE4D3 cDNA (stored in Otsuka America Pharmaceutical, Inc., Maryland Research Laboratories) was transformed in E. coli, cultured on a large scale, and purified using an EndoFree™ Plasmid Maxi Kit (Qiagen).
(2) Abundant Expression and Purification of PDE4D
COS-7 cells derived from African green monkey kidneys were passage cultured in D-MEM media containing 100 units/ml penicillin, 100 μg/ml streptomycin, and 10% FBS. The cells were transfected with the plasmid prepared in (1) above using Lipofectamine™ 2000 (hereinafter referred to as “LF2000”, Invitrogen), following the manufacturer's protocol. The COS-7 cells were inoculated in a 10 cm culture dish on the previous day so as to be 90% confluent on the day of transfection. Culture dishes each containing a plasmid solution (solution A) in which 24 μg of plasmid was diluted in 1.5 ml Opti-MEM I Reduced Serum Medium (Invitrogen) and an LF2000 solution (solution B) in which 60 μl of LF2000 was diluted in 1.5 ml Opti-MEM I Reduced Serum Medium were separately allowed to stand for 5 minutes at room temperature. Solutions A and B were then mixed and the mixture was allowed to stand for 20 minutes at room temperature. The mixture was added to the cultured cells, and incubated at 37° C. (5% CO2) overnight. On the following day, the medium was replaced, and the mixture was further incubated overnight to harvest the cells in the following manner. The cells were washed with PBS (Sigma) once, and 10 ml of a Trypsin-EDTA solution (Sigma) was added to each culture dish. After the solution was distributed to each of the culture dishes, the cells were detached, and the dishes were allowed to stand for about 5 minutes at 37° C. The detached cells from the dishes were suspended in media, collected into centrifuge tubes, and centrifuged at 1200 rpm for 5 minutes at 4° C., and supernatants were removed. The cells were further washed with PBS, and stored at −80° C. KHEM buffer (100 mM Hepes, 50 mM KCl, 10 mM EGTA, 1.92 mM MgCl2, pH 7.4) containing 1 mM DTT, 1 μg/ml antipain, 1 μg/ml aprotinin, 1 μg/ml leupeptin, 1 μg/ml pepstatin A, 157 μg/ml benzamidine, and 120 μg/ml Pefabloc SC was added to the stored cells, and the contents were moved to a glass homogenizer to be homogenized on ice. The cell suspension was centrifuged at 1000 rpm for 5 minutes at 4° C., and the supernatant was further centrifuged at 14000 rpm for one hour. After centrifugation, the supernatant was dispensed into new tubes as PDE4D enzyme solutions, and stored in a deep freezer.
(3) Determination on Dilution Ratio of PDE4D Enzyme Solutions
The PDE4D enzyme solutions prepared in (2) above were dissolved in 20 mM Tris-HCl solution (pH 7.4) to give 10-, 25-, 50-, 100-, 200-, 400-, and 800-fold dilutions of the enzyme solutions. PDE4D activities were measured according to (4) below. The percentage of catalyzed cAMP to total cAMP was calculated, and such a dilution, in which the percentage was between 10% and 30%, was adopted in the inhibitory study below.
(4) Measurement of PDE4D Inhibitory Activity
Necessary amounts of test compounds were weighed, and 100% dimethylsulfoxide (DMSO) was added thereto to adjust the concentration to 10 mM. The solutions were stored in a freezer as stock solutions of each test compound. After being thawed when required, the solutions were diluted 20-fold with 100% DMSO to give a 500 μM concentration. Further, 10-fold serial dilutions were made with 100% DMSO to prepare test compounds of different concentrations. 2 μl of solutions containing one of each of the test compound were separately added into 1.2 ml tubes in which 23 μl of 20 mM Tris-HCl (pH 7.4) had been placed beforehand. […]
In general, IC50 refers to the concentration needed to halve the response being measured. As to `Cc1cccnc1C(=O)CCc1coc(-c2ccc(OC(F)F)c(OCC3CC3)c2)n1` [Example 328, 3-[2-(3-cyclopropylmethoxy-4-difluoromethoxyphenyl)oxazol-4-yl]-1-(3-methylpyridin-2-yl)propan-1-one], the IC50 is below 50 nM.
On to `CCOc1ccc(-c2nc(CCC(=O)c3ccccc3OCCF)co2)cc1OCC` [Example 289, 3-[2-(3,4-diethoxyphenyl)oxazol-4-yl]-1-[2-(2-fluoroethoxy)phenyl]propan-1-one], for which the IC50 is below 50 nM.
For `Cc1cccnc1C(=O)NCc1coc(-c2ccc(OC(F)F)c(OC(C)C)c2)n1` [Example 341, N-[2-(4-difluoromethoxy-3-isopropoxyphenyl)oxazol-4-ylmethyl]-3-methylpicolinamide] the value was below 50 nM; for `COc1ccc(-c2nc(CCC(=O)c3ccccc3OC)co2)cc1OCC1CC1` [Example 170, 3-[2-(3-cyclopropylmethoxy-4-methoxyphenyl)oxazol-4-yl]-1-(2-methoxyphenyl)propan-1-one], below 50 nM; for `C=CCCOc1cc(-c2nc(CCC(=O)c3ncccc3C)co2)ccc1OC(F)F` [Example 331, 3-[2-(3-but-3-enyloxy-4-difluoromethoxyphenyl)-oxazol-4-yl]-1-(3-methylpyridin-2-yl)propan-1-one], below 50 nM.
As to `Cc1cccnc1C(=O)NCc1coc(-c2ccc(OC(F)F)c(OCC3CC3)c2)n1` [Example 98, N-[2-(3-cyclopropylmethoxy-4-difluoromethoxyphenyl)oxazol-4-ylmethyl]-3-methylpicolinamide], the IC50 was below 50 nM.
Regarding `CCOc1cc(-c2nc(CCC(=O)c3ccccc3OCC(F)F)co2)ccc1OC` [Example 280, 1-[2-(2,2-difluoroethoxy)phenyl]-3-[2-(3-ethoxy-4-methoxyphenyl)oxazol-4-yl]propan-1-one], the IC50 is below 50 nM.
On to `COc1ccc(-c2nc(CCC(=O)c3ccccc3OCC(F)F)co2)cc1OCC(F)F` [Example 284, 3-{2-[3-(2,2-difluoroethoxy)-4-methoxyphenyl]oxazol-4-yl}-1-[2-(2,2-difluoroethoxy)phenyl]propan-1-one], for which the IC50 is below 50 nM.
For `COc1ccc(-c2nc(CCC(=O)c3ccccc3OCCF)co2)cc1OC(C)C` [Example 275, 1-(2-fluoroethoxyphenyl)-3-[2-(3-isopropoxy-4-methoxyphenyl)oxazol-4-yl]propan-1-one] the value was below 50 nM; for `COc1ccc(-c2nc(CNC(=O)c3ccccc3OC)co2)cc1OC1CCCC1` [Example 35, N-[2-(3-cyclopentyloxy-4-methoxyphenyl)oxazol-4-ylmethyl]-2-methoxybenzamide], below 50 nM; for `CCOc1ccc(-c2nc(CCC(=O)c3ccc(F)cc3OCC)co2)cc1OCC` [Example 299, 3-[2-(3,4-diethoxyphenyl)oxazol-4-yl]-1-(2-ethoxy-4-fluorophenyl)propan-1-one], below 50 nM.
Turning to `COc1ccc(-c2nc(CNC(=O)c3ncccc3C)co2)cc1OCC(C)C` [Example 62, N-[2-(3-isobutoxy-4-methoxyphenyl)oxazol-4-ylmethyl]-3-methylpicolinamide], the IC50 was below 50 nM.
For `CCOc1ccc(-c2nc(CCC(=O)c3ccccc3OCC)co2)cc1OCC` [Example 182, 3-[2-(3,4-diethoxyphenyl)oxazol-4-yl]-1-(2-ethoxyphenyl)propan-1-one] the value was below 50 nM.
For `Cc1cccnc1C(=O)CCc1coc(-c2ccc(OC(F)F)c(OC(C)C)c2)n1` [Example 332, 3-[2-(4-difluoromethoxy-3-isopropoxyphenyl)oxazol-4-yl]-1-(3-methylpyridin-2-yl)propan-1-one] the value was below 50 nM; for `COc1ccc(-c2nc(CNC(=O)c3ccc(F)cc3OC)co2)cc1OCC1CC1` [Example 42, N-[2-(3-cyclopropylmethoxy-4-methoxyphenyl)oxazol-4-ylmethyl]-4-fluoro-2-methoxybenzamide], below 50 nM.
On to `CCOc1cc(-c2nc(CCC(=O)c3ncccc3C)co2)ccc1OC(F)F` [Example 333, 3-[2-(4-difluoromethoxy-3-ethoxyphenyl)oxazol-4-yl]-1-(3-methylpyridin-2-yl)propan-1-one], for which the IC50 is below 50 nM.
For `C=CCOc1ccccc1C(=O)CCc1coc(-c2ccc(OC)c(OC(C)C)c2)n1` [Example 224, 1-(2-allyloxyphenyl)-3-[2-(3-isopropoxy-4-methoxyphenyl)oxazol-4-yl]propan-1-one] the value was below 50 nM; for `C=CCCOc1cc(-c2nc(CCC(=O)c3ccccc3OCC)co2)ccc1OC` [Example 108, 3-[2-(3-(3-butenyloxy)-4-methoxyphenyl)oxazol-4-yl]-1-(2-ethoxyphenyl)propan-1-one], below 50 nM; for `COc1ccc(-c2nc(CNC(=O)c3ccccc3SC)co2)cc1OCC1CC1` [Example 44, N-[2-(3-cyclopropylmethoxy-4-methoxyphenyl)oxazol-4-ylmethyl]-2-methylsulfanylbenzamide], below 50 nM.
For `CCOc1ccccc1C(=O)CCc1coc(-c2ccc(OC)c(OCC3CC3)c2)n1` [Example 102, 3-[2-(3-cycropropylmethoxy-4-methoxyphenyl)oxazol-4-yl]-1-(2-ethoxyphenyl)propan-1-one] the value was below 50 nM; for `CCOc1cc(-c2nc(CNC(=O)c3ccccc3OCC)co2)ccc1OC(F)F` [Example 349, N-[2-(4-difluoromethoxy-3-ethoxyphenyl)oxazol-4-ylmethyl]-2-ethoxybenzamide], below 50 nM.
In the case of `COc1ccc(-c2nc(CCC(=O)c3ncccc3C)co2)cc1OCCC1CC1` [Example 153, 3-{2-[3-(2-cyclopropylethoxy)-4-methoxyphenyl]oxazol-4-yl}-1-(3-methylpyridin-2-yl)propan-1-one], the IC50 was below 50 nM.
With `COc1ccc(-c2nc(CNC(=O)c3ncccc3C)co2)cc1OCC1CC1` [Example 36, N-[2-(3-cyclopropylmethoxy-4-methoxyphenyl)oxazol-4-ylmethyl]-3-methylpicolinamide], the IC50 was below 50 nM.
For `CCOc1ccc(-c2nc(CCC(=O)c3ncccc3C)co2)cc1OCC` [Example 181, 3-[2-(3,4-diethoxyphenyl)oxazol-4-yl]-1-(3-methylpyridin-2-yl)propan-1-one], the IC50 was below 50 nM.
For the molecule `CCOc1ccccc1C(=O)CCc1coc(-c2ccc(OC(F)F)c(OCC3CC3)c2)n1` [Example 336, 3-[2-(3-cyclopropylmethoxy-4-difluoromethoxyphenyl)oxazol-4-yl]-1-(2-ethoxyphenyl)propan-1-one], the IC50 was below 50 nM.
As for `Cc1cccnc1C(=O)NCc1coc(-c2ccc(OC(F)F)c(OCC3CCC3)c2)n1` [Example 345, N-[2-(3-cyclobutylmethoxy-4-difluoromethoxyphenyl)oxazol-4-ylmethyl]-3-methyl picolinamide], the IC50 is below 50 nM.
In the case of `COc1ccc(-c2nc(CCC(=O)c3ccccc3OCC(F)F)co2)cc1OC(C)C` [Example 278, 1-[2-(2,2-difluoroethoxy)phenyl]-3-[2-(3-isopropoxy-4-methoxyphenyl)oxazol-4-yl]propan-1-one], the IC50 is below 50 nM.
As for `CCC(C)Oc1cc(-c2nc(CCC(=O)c3ncccc3C)co2)ccc1OC` (stereo not shown) [Example 311, 3-[2-(3-sec-butoxy-4-methoxyphenyl)oxazol-4-yl]-1-(3-methylpyridin-2-yl)propan-1-one], the IC50 was below 50 nM.
